{"source": "paper PMC7064328", "about": "(Environmental Health Perspectives, 2020)", "system": "maternal liver", "assay": "Maternal liver histopathology (H&E)", "assay_type": "in vivo, mouse (CD-1)", "settings": "for CA, any severity: % / CA, any severity: N / CA, marked: % / CA, marked: N / CA, minimal to mild: % / CA, minimal to mild: N / CA, moderate: % / CA, moderate: N / Focal regions of classic necrosis: % / Focal regions of classic necrosis: N / Increase in cell death: % / Increase in cell death: N / Increase in mitotic figures: % / Increase in mitotic figures: N / Vacuolation, any severity: % / Vacuolation, any severity: N / Vacuolation, mild: % / Vacuolation, mild: N / Vacuolation, minimal: % / Vacuolation, minimal: N / Vacuolation, moderate: % / Vacuolation, moderate: N: maternal liver", "from_the_text": "From each uterus, first, viable embryos and their matched placentas were collected in succession within a horn and immediately snap frozen ( n=2–5 per litter ), and subsequent embryos were collected for growth measurements ( n=2–11 per litter ). Additional placentas were collected and placed in 4% paraformaldehyde (PFA) for histological analysis (Block 2 only). Amniotic fluid was collected by needle aspiration from litters euthanized at E11.5 and snap frozen in liquid nitrogen. Embryo livers were collected from litters euthanized at E17.5 and snap frozen in liquid nitrogen. Dam livers were weighed, a portion of the left lateral lobe was placed in 4% PFA for histology, and another portion of the same lobe was snap frozen in liquid nitrogen. A third liver section was obtained from Block 2 dams and fixed in McDowell and Trump’s fixative for electron microscopy (EM). Gross lesions were collected when observed and placed in 4% PFA for histology. Dam kidneys were removed, a cross section was prepared from the right kidney, a longitudinal section was prepared from the left kidney, and both sections were fixed in 4% PFA for histological analysis.\nDam livers, kidneys, and placentas were trimmed and embedded by the NIEHS Mouse Embryo Phenotyping Core. Tissues collected at necropsy were fixed in 4% PFA for 72 h and paraffin embedded, and 5-μm sections were prepared and stained with hematoxylin and eosin (H&E). Pathology was evaluated and a pathology review conducted by S.A.E. Diplomate American College of Veterinary Pathologists (DACVP). Pathology reviews were conducted as an informed approach analysis [e.g., nonblinded analysis; see Sills et al. ([2019])]. Select tissue slides were scanned using the AT2 Scanner (Aperio). Images were then captured for publication using the ImageScope software; version 12.3.0.5056 (Aperio). Serum and urine obtained from dams in Block 2 were analyzed using the AU480 clinical chemistry analyzer (Beckman Coulter Inc.). Reagents and calibration standards used to measure alkaline phosphatase (ALP), alanine aminotransferase (ALT), aspartate aminotransferase (AST), blood urea nitrogen (BUN), serum creatinine, urine creatinine, glucose (Glu), total protein (TP), triglyceride (Trig), high-density lipoprotein (HDL), cholesterol (Chol), and albumin (ALB) were purchased from Beckman Coulter Inc. Reagents for sorbitol dehydrogenase (SDH), total bile acid (TBA), and micro-TP were purchased from Sekisui Diagnostics. The reagent used to measure low-density lipoprotein (LDL) was purchased form Diazyme Laboratories.", "data": [{"molecule": "N.O=C(O)C(F)(OC(F)(F)C(F)(F)C(F)(F)F)C(F)(F)F", "note": "(centres unmarked) [GenX, ammonium 2,3,3,3-tetrafluoro-2-(heptafluoropropoxy)propanoate]", "values": [{"measurement": "Incidence of livers with adverse outcomes including cytoplasmic alteration", "setting": "all dose groups, E11.5 and E17.5", "value": 100, "unit": "%"}, {"measurement": "CA, any severity: %", "setting": "E11.5, 2 mg/kg/d", "value": 100, "unit": "%"}, {"measurement": "CA, any severity: N", "setting": "E11.5, 2 mg/kg/d", "value": 5}, {"measurement": "CA, marked: %", "setting": "E11.5, 2 mg/kg/d", "value": 0, "unit": "%"}, {"measurement": "CA, marked: N", "setting": "E11.5, 2 mg/kg/d", "value": 0}, {"measurement": "CA, minimal to mild: %", "setting": "E11.5, 2 mg/kg/d", "value": 100, "unit": "%"}, {"measurement": "CA, minimal to mild: N", "setting": "E11.5, 2 mg/kg/d", "value": 5}, {"measurement": "CA, moderate: %", "setting": "E11.5, 2 mg/kg/d", "value": 0, "unit": "%"}, {"measurement": "CA, moderate: N", "setting": "E11.5, 2 mg/kg/d", "value": 0}, {"measurement": "Focal regions of classic necrosis: %", "setting": "E11.5, 2 mg/kg/d", "value": 0, "unit": "%"}, {"measurement": "Focal regions of classic necrosis: N", "setting": "E11.5, 2 mg/kg/d", "value": 0}, {"measurement": "Increase in cell death: %", "setting": "E11.5, 2 mg/kg/d", "value": 80, "unit": "%"}, {"measurement": "Increase in cell death: N", "setting": "E11.5, 2 mg/kg/d", "value": 4}, {"measurement": "Increase in mitotic figures: %", "setting": "E11.5, 2 mg/kg/d", "value": 60, "unit": "%"}, {"measurement": "Increase in mitotic figures: N", "setting": "E11.5, 2 mg/kg/d", "value": 3}, {"measurement": "Vacuolation, any severity: %", "setting": "E11.5, 2 mg/kg/d", "value": 0, "unit": "%"}, {"measurement": "Vacuolation, any severity: N", "setting": "E11.5, 2 mg/kg/d", "value": 0}, {"measurement": "Vacuolation, mild: %", "setting": "E11.5, 2 mg/kg/d", "value": 0, "unit": "%"}, {"measurement": "Vacuolation, mild: N", "setting": "E11.5, 2 mg/kg/d", "value": 0}, {"measurement": "Vacuolation, minimal: %", "setting": "E11.5, 2 mg/kg/d", "value": 0, "unit": "%"}, {"measurement": "Vacuolation, minimal: N", "setting": "E11.5, 2 mg/kg/d", "value": 0}, {"measurement": "Vacuolation, moderate: %", "setting": "E11.5, 2 mg/kg/d", "value": 0, "unit": "%"}, {"measurement": "Vacuolation, moderate: N", "setting": "E11.5, 2 mg/kg/d", "value": 0}, {"measurement": "CA, any severity: %", "setting": "E11.5, 10 mg/kg/d", "value": 100, "unit": "%"}, {"measurement": "CA, any severity: N", "setting": "E11.5, 10 mg/kg/d", "value": 5}, {"measurement": "CA, marked: %", "setting": "E11.5, 10 mg/kg/d", "value": 60, "unit": "%"}, {"measurement": "CA, marked: N", "setting": "E11.5, 10 mg/kg/d", "value": 3}, {"measurement": "CA, minimal to mild: %", "setting": "E11.5, 10 mg/kg/d", "value": 0, "unit": "%"}, {"measurement": "CA, minimal to mild: N", "setting": "E11.5, 10 mg/kg/d", "value": 0}, {"measurement": "CA, moderate: %", "setting": "E11.5, 10 mg/kg/d", "value": 40, "unit": "%"}, {"measurement": "CA, moderate: N", "setting": "E11.5, 10 mg/kg/d", "value": 2}, {"measurement": "Focal regions of classic necrosis: %", "setting": "E11.5, 10 mg/kg/d", "value": 20, "unit": "%"}, {"measurement": "Focal regions of classic necrosis: N", "setting": "E11.5, 10 mg/kg/d", "value": 1}, {"measurement": "Increase in cell death: %", "setting": "E11.5, 10 mg/kg/d", "value": 60, "unit": "%"}, {"measurement": "Increase in cell death: N", "setting": "E11.5, 10 mg/kg/d", "value": 3}, {"measurement": "Increase in mitotic figures: %", "setting": "E11.5, 10 mg/kg/d", "value": 80, "unit": "%"}, {"measurement": "Increase in mitotic figures: N", "setting": "E11.5, 10 mg/kg/d", "value": 4}, {"measurement": "Vacuolation, any severity: %", "setting": "E11.5, 10 mg/kg/d", "value": 100, "unit": "%"}, {"measurement": "Vacuolation, any severity: N", "setting": "E11.5, 10 mg/kg/d", "value": 5}, {"measurement": "Vacuolation, mild: %", "setting": "E11.5, 10 mg/kg/d", "value": 0, "unit": "%"}, {"measurement": "Vacuolation, mild: N", "setting": "E11.5, 10 mg/kg/d", "value": 0}, {"measurement": "Vacuolation, minimal: %", "setting": "E11.5, 10 mg/kg/d", "value": 100, "unit": "%"}, {"measurement": "Vacuolation, minimal: N", "setting": "E11.5, 10 mg/kg/d", "value": 5}, {"measurement": "Vacuolation, moderate: %", "setting": "E11.5, 10 mg/kg/d", "value": 0, "unit": "%"}, {"measurement": "Vacuolation, moderate: N", "setting": "E11.5, 10 mg/kg/d", "value": 0}, {"measurement": "CA, any severity: %", "setting": "E17.5, 2 mg/kg/d", "value": 100, "unit": "%"}, {"measurement": "CA, any severity: N", "setting": "E17.5, 2 mg/kg/d", "value": 5}, {"measurement": "CA, marked: %", "setting": "E17.5, 2 mg/kg/d", "value": 0, "unit": "%"}, {"measurement": "CA, marked: N", "setting": "E17.5, 2 mg/kg/d", "value": 0}, {"measurement": "CA, minimal to mild: %", "setting": "E17.5, 2 mg/kg/d", "value": 40, "unit": "%"}, {"measurement": "CA, minimal to mild: N", "setting": "E17.5, 2 mg/kg/d", "value": 2}, {"measurement": "CA, moderate: %", "setting": "E17.5, 2 mg/kg/d", "value": 60, "unit": "%"}, {"measurement": "CA, moderate: N", "setting": "E17.5, 2 mg/kg/d", "value": 3}, {"measurement": "Focal regions of classic necrosis: %", "setting": "E17.5, 2 mg/kg/d", "value": 20, "unit": "%"}, {"measurement": "Focal regions of classic necrosis: N", "setting": "E17.5, 2 mg/kg/d", "value": 1}, {"measurement": "Increase in cell death: %", "setting": "E17.5, 2 mg/kg/d", "value": 0, "unit": "%"}, {"measurement": "Increase in cell death: N", "setting": "E17.5, 2 mg/kg/d", "value": 0}, {"measurement": "Increase in mitotic figures: %", "setting": "E17.5, 2 mg/kg/d", "value": 0, "unit": "%"}, {"measurement": "Increase in mitotic figures: N", "setting": "E17.5, 2 mg/kg/d", "value": 0}, {"measurement": "Vacuolation, any severity: %", "setting": "E17.5, 2 mg/kg/d", "value": 0, "unit": "%"}, {"measurement": "Vacuolation, any severity: N", "setting": "E17.5, 2 mg/kg/d", "value": 0}, {"measurement": "Vacuolation, mild: %", "setting": "E17.5, 2 mg/kg/d", "value": 0, "unit": "%"}, {"measurement": "Vacuolation, mild: N", "setting": "E17.5, 2 mg/kg/d", "value": 0}, {"measurement": "Vacuolation, minimal: %", "setting": "E17.5, 2 mg/kg/d", "value": 0, "unit": "%"}, {"measurement": "Vacuolation, minimal: N", "setting": "E17.5, 2 mg/kg/d", "value": 0}, {"measurement": "Vacuolation, moderate: %", "setting": "E17.5, 2 mg/kg/d", "value": 0, "unit": "%"}, {"measurement": "Vacuolation, moderate: N", "setting": "E17.5, 2 mg/kg/d", "value": 0}, {"measurement": "CA, any severity: %", "setting": "E17.5, 10 mg/kg/d", "value": 100, "unit": "%"}, {"measurement": "CA, any severity: N", "setting": "E17.5, 10 mg/kg/d", "value": 5}, {"measurement": "CA, marked: %", "setting": "E17.5, 10 mg/kg/d", "value": 100, "unit": "%"}, {"measurement": "CA, marked: N", "setting": "E17.5, 10 mg/kg/d", "value": 5}, {"measurement": "CA, minimal to mild: %", "setting": "E17.5, 10 mg/kg/d", "value": 0, "unit": "%"}, {"measurement": "CA, minimal to mild: N", "setting": "E17.5, 10 mg/kg/d", "value": 0}, {"measurement": "CA, moderate: %", "setting": "E17.5, 10 mg/kg/d", "value": 0, "unit": "%"}, {"measurement": "CA, moderate: N", "setting": "E17.5, 10 mg/kg/d", "value": 0}, {"measurement": "Focal regions of classic necrosis: %", "setting": "E17.5, 10 mg/kg/d", "value": 20, "unit": "%"}, {"measurement": "Focal regions of classic necrosis: N", "setting": "E17.5, 10 mg/kg/d", "value": 1}, {"measurement": "Increase in cell death: %", "setting": "E17.5, 10 mg/kg/d", "value": 100, "unit": "%"}, {"measurement": "Increase in cell death: N", "setting": "E17.5, 10 mg/kg/d", "value": 5}, {"measurement": "Increase in mitotic figures: %", "setting": "E17.5, 10 mg/kg/d", "value": 0, "unit": "%"}, {"measurement": "Increase in mitotic figures: N", "setting": "E17.5, 10 mg/kg/d", "value": 0}, {"measurement": "Vacuolation, any severity: %", "setting": "E17.5, 10 mg/kg/d", "value": 100, "unit": "%"}, {"measurement": "Vacuolation, any severity: N", "setting": "E17.5, 10 mg/kg/d", "value": 5}, {"measurement": "Vacuolation, mild: %", "setting": "E17.5, 10 mg/kg/d", "value": 60, "unit": "%"}, {"measurement": "Vacuolation, mild: N", "setting": "E17.5, 10 mg/kg/d", "value": 3}, {"measurement": "Vacuolation, minimal: %", "setting": "E17.5, 10 mg/kg/d", "value": 40, "unit": "%"}, {"measurement": "Vacuolation, minimal: N", "setting": "E17.5, 10 mg/kg/d", "value": 2}, {"measurement": "Vacuolation, moderate: %", "setting": "E17.5, 10 mg/kg/d", "value": 0, "unit": "%"}, {"measurement": "Vacuolation, moderate: N", "setting": "E17.5, 10 mg/kg/d", "value": 0}]}]}
